Consider 3 molecules from the NIST ThermoML archive (doi:10.1021/acs.jced.5b00932).

The series can be described thus: wn = mass fraction of the nth substance listed. Conditions: 298.15 K, 101 kPa, Liquid, Pycnometric method.

Structures are written as SMILES. Numbers after ± are expanded uncertainties.

Usually mass density stands for the mass of a sample divided by its volume. For the molecule `[Ca+2].[Cl-].[Cl-]` [calcium chloride] + O, the mass density (w1 = 0.4647) is 1456.1 ± 2.3 kg/m3.

For `[Cl][Al]([Cl])[Cl]` [aluminum chloride] + O, the mass density (w1 = 0.3108) came to 1314.6 ± 2.2 kg/m3.

Turning to `[Cl][Fe]([Cl])[Cl]` [ferric chloride] + O, the mass density (w1 = 0.5069) turned out to be 1521.5 ± 3.3 kg/m3.
